The values that follow come from article PMC9102953, “New Derivatives of 5-Substituted Uracils: Potential Agents with a Wide Spectrum of Biological Activity” (Molecules, 2022).

The test system of one data set is HCoV-OC43. Description: Antiviral cytopathicity assay, HCoV-OC43 in HEL 299 cells. Type of data set: cell-based. In general terms: Damage to the host cells serves as the signal in cytopathic effect assays.
Data set [1] concerns yellow fever virus (YFV) strain 17 D. Kind of data set: microbe, parasite or virus in culture. In kind it is cell-based. The settings on record: Yellow fever virus, Huh-7, read-out: EC50 (μM) YFV 17D, Huh7.
Data set [2] in a line: in vitro. Particulars: dog.
Data set [3] relates to respiratory syncytial virus (RSV) strain A Long. Kind of data set: microbe, parasite or virus in culture. Type of data set: cell-based. Particulars: human respiratory syncytial virus, HEL 299, read-out: EC50 (μM) RSV A Long, HEL 299.
For data set [4], the system named is HEL299, Huh 7 and MDCK cells.
In a further data set the test system is a variety of RNA viruses. In kind it is cell-based.
Data set [5] is described as follows: in vitro. The settings on record: human.
Data set [6] in a line: in vitro. The settings on record: human. This is another data set of the same source.
For data set [7], the system named is varicella-zoster virus (VZV) strain TK−. Kind of data set: microbe, parasite or virus in culture. Type of data set: cell-based. The settings on record: Human alphaherpesvirus 3, HEL, read-out: EC50, formation of viral plaques, TK-varicella-zoster virus strain.
The subject of the next data set is HEL cells. Description: Change of cell morphology in HEL cells. Type of data set: cell-based, human.
The test system of data set [8] is human cytomegalovirus (HCMV) strain Davis. Description: microbe, parasite or virus in culture. The settings on record: Human betaherpesvirus 5, HEL, read-out: EC50, formation of viral plaques, cytomegalovirus strain Davis. In kind it is cell-based.
Data set [9] deals with human cytomegalovirus (HCMV) strain AD-169. Kind of data set: microbe, parasite or virus in culture. Particulars: Human betaherpesvirus 5, AD169, HEL, read-out: EC50, formation of viral plaques, cytomegalovirus strain AD169. In kind it is cell-based.
[10] abbreviates: Betacoronavirus 1, OC43, HEL 299, read-out: EC50 (μM) HCoV-OC43, HEL 299.
[11] abbreviates: Betacoronavirus 1, OC43, HEL 299 cells, reduction of virus-induced cytopathicity by 50%, read-out: EC50 (μM) HCoV-OC43, HEL 299.

Like-named read-outs stand apart in the source and are kept apart here. Where only a bound is given, the exact number is not on record here.

On to `CCCCCCc1ccc(Nc2cn(C3C=CC(O)C3)c(=O)[nH]c2=O)cc1` (racemic) [(±)-3d, (±)-1-(4′-Hydroxycyclopent-2′-en-1′-yl)-5-((4′-hexylphenyl)amino)uracil], for which the EC50 (in the data set with HCoV-OC43 (setting [10]); in data set [1]; in [3]) was more than 100 µM throughout. In addition, the CC50 in the data set “in vitro [2]” came out at 30 µM. Besides, the “cytotoxicity in the tested cell lines (in words)” value (from here on “cytotoxicity”) in data set [4] was “marked cytotoxicity”. Moreover, the “antiviral activity in the screening (in words)” value (shortened to “antiviral activity”) in the data set on a variety of RNA viruses is recorded as “did not show any activity”.

For the compound `CC(C)(C)c1ccc(Nc2cn(C3C=CC(O)C3)c(=O)[nH]c2=O)cc1` (racemic) [(±)-3e, (±)-1-(4′-Hydroxycyclopent-2′-en-1′-yl)-5-((4″-tert-butyl)phenylamino)uracil], the EC50 (with HCoV-OC43 (setting [10]); in data set [1]; in [3]) was more than 100 µM each time. Also, the CC50 is more than 100 µM in the data set “in vitro [5]”, 63 µM in the data set “in vitro [2]” and more than 100 µM in the data set “in vitro [6]”. In addition, the “cytotoxicity” value in data set [4] is on record as “marked cytotoxicity”. Further, the “antiviral activity” value in the data set on a variety of RNA viruses is recorded as “did not show any activity”.

`CC(C)(C)c1ccc(Nc2cn(C3C=CC(O)C3)c(=O)n(C3C=CC(O)C3)c2=O)cc1` (racemic) [(±)-4e, (±)-1-(1-(4′-hydroxycyclopent-2′-ene-1′-yl))-3-(4‴-hydroxycyclopent-2‴-en-1‴-yl)-5-((4″-tert-butyl)phenylamino)uracil]: the EC50 (in general, the concentration needed to bring the measured effect to its halfway point) with HCoV-OC43 (setting [11]) was more than 100 µM; in [7], 48.9 µM; in data set [1], more than 100 µM; in data set [3] it was more than 100 µM; in data set [8], 40.9 µM; in data set [9] it was 76.5 µM. For the same compound, the “minimum concentration that leads to the detection of changes in cell morphology” value in the data set with HEL cells is given as “greater than 100 μM”. Further, the CC50 in the data set “in vitro [2]” came to 19.5 µM. The “cytotoxicity” value in data set [4] was “marked cytotoxicity”. The “antiviral activity” value in the data set with a variety of RNA viruses is “did not show any activity”.

Consider `Cc1cc(C)cc(Oc2cn(C3C=CC(O)C3)c(=O)[nH]c2=O)c1` (racemic) [(±)-10a, (±)-1-(4′-Hydroxycyclopent-2′-en-1′-yl)-5-(3″,5″-dimethylphenoxy)uracil], for which the half-maximal effective concentration (EC50) (in the data set on HCoV-OC43 (setting [10]); in data set [1]; in data set [3]) was more than 100 µM in each case. Besides, the results for the CC50 in the data set “in vitro [5]”, in “in vitro [2]” and in “in vitro [6]” were more than 100 µM, 33.8 µM and more than 100 µM, respectively. For the same compound, in data set [4], the “cytotoxicity” value is “marked cytotoxicity”. In addition, the “antiviral activity” value in the data set on a variety of RNA viruses is “did not show any activity”.

`O=c1c(Oc2ccc(Cl)cc2)cn(C2C=CC(O)C2)c(=O)n1C1C=CC(O)C1` (racemic) [(±)-11c, (±)-1-(4′-hydroxycyclopent-2′-en-1′-yl)-3-(4‴-hydroxycyclopent-2‴-en-1‴-yl)-5-(4″-chlorophenoxy)uracil]: the EC50 (with HCoV-OC43 (setting [10]); in data set [1]; in [3]) was more than 100 µM in each case. The CC50 in the data set “in vitro [5]” was more than 100 µM; in the data set “in vitro [2]”, 47.4 µM; in the data set “in vitro [6]”, more than 100 µM. Moreover, the “cytotoxicity” value in data set [4] is reported as “marked cytotoxicity”. The “antiviral activity” value in the data set with a variety of RNA viruses is on record as “did not show any activity”.

Regarding `O=c1[nH]cc(Oc2ccc(Cl)cc2)c(=O)[nH]1` [Compound 5c, 5-(4-Chlorophenoxy)uracil], the melting point (in general, the temperature of the solid-liquid transition) fell in the range of 331 to 333 °C. Besides, the EC50 in the data set with HCoV-OC43 (setting [11]) is more than 100 µM. This compound also returned a CC50 in the data set “in vitro [5]” of more than 100 µM. For the same compound, in data set [1], the EC50 is more than 100 µM. Moreover, the CC50 in “in vitro [2]” is more than 100 µM. In addition, the EC50 in [3] was more than 100 µM. This compound displayed a CC50 in the data set “in vitro [6]” of more than 100 µM.

In turn, `CC(C)(C)c1ccc(Oc2c[nH]c(=O)[nH]c2=O)cc1` [Compound 5d, 5-(4-tert-Butylphenoxy)uracil] registered a melting point of 273 to 275 °C. Moreover, the EC50 with HCoV-OC43 (setting [11]) was more than 100 µM. This compound displayed a CC50 in the data set “in vitro [5]” of more than 100 µM. The EC50 in data set [1] was more than 100 µM. The compound further had a CC50 in the data set “in vitro [2]” of more than 100 µM. Also, the EC50 in [3] was more than 100 µM. The compound further came in with a CC50 in “in vitro [6]” of more than 100 µM.
